Counter-ions that a name gives are not always drawn.
Legend:
[1] = target: T1, DYRK1B (Homo sapiens, UniProt Q9Y463); assay: DYRK1B in vitro kinase assay (ADP-Glo); format: biochemical; conditions: ADP-Glo assay, ATP 15 μM (Km), substrate 7 μM, enzyme 1 nM or 0.3 nM, 1 h, rt; read-out: DYRK1B IC50
T1 construct: purchased Carna Bioscence (Carna Biosciences) 04-131
Protocol: The compounds of the present invention were tested for their inhibitory activity against DYRK1A and DYRK1B kinases once or several times. When tested more than once, the data are reported herein as average value, wherein the average value, also referred to as the mean value, represents the sum of obtained values divided by the number of times tested. DYRK-inhibitory activity of the compounds of the present invention was tested using the ADP-Glo™ assay as described in the following paragraphs. The procedure for determining the IC50 values with the ADP-Glo™ assay in in vitro kinase assays consists of two parts: […] Kinase reaction performed under optimized conditions; 2. Detection of ADP as a product of the reaction using ADP-Glo™ system (Promega). The tested compounds indicated in Table 5 below were dissolved in DMSO, then transferred to the V-bottom PP plate to perform nine serial dilutions (in order to obtain dose-response curves) in 25% DMSO, as indicated in Table 5 below. The optimized conditions for performing DYRK1B in vitro kinase assay were as follows: [table] For compound testing, the following protocol was used: two mixes were prepared on ice, Mix 1 containing substrate, ATP and reaction buffer and Mix 2 containing reaction buffer and the kinase. 15 μL per well of Mix 1 was transferred to wells of a 96-well plate. […] Total reaction volume was 30 μL per well. The experiment was performed in duplicate for each data point being examined. Dose response curve for the positive control was carried out on each assay plate by adding the reference inhibitory compound staurosporine. For each test, three controls were also included: (i) 30 μL of the reaction mixture containing: reaction buffer, ATP, kinase, DMSO without substrate (quasi-positive control); (ii) 30 μL of the reaction mixture containing reaction buffer, substrate, ATP, DMSO without kinase (background control); (iii) 30 μL of the reaction mixture containing reaction buffer, substrate, kinase, ATP, DMSO (vehicle control). Final concentration of DMSO in the reaction was 2%. To detect the ADP amount produced during the kinase reaction, the commercially available kit ADP-Glo™ Kinase Assay (Promega, cat. No # V9103) was used. The protocol used for the detection was based on the Technical Bulletin of the ADP-Glo™ Kinase Assay (Promega) and was adapted to 96-well plate containing 30 μL reaction mixture as explained below. 30 μL of ADP-Glo™ Reagent was added to each well of a 96 well plate containing 30 μL of reaction mixture to terminate the kinase reaction and deplete the remaining ATP. The plate was incubated for 60 minutes on a shaker at rt. 60 μL of Kinase Detection Solution was then added to each well of 96-well plate containing 60 μL of the solution to convert ADP to ATP and to allow the newly synthesized ATP to be measured using a luciferase/luciferin reaction (ratio of kinase reaction volume to ADP Glo™ Reagent volume to Kinase Detection Solution volume was maintained at 1:1:2). The plate was incubated for 40 minutes on a shaker at rt, protected from light. Luminescence was measured in the plate reader, wherein the luminescent signal is proportional to the ADP concentration produced and thus correlates with kinase activity. After data normalization to controls (complete reaction mix and no-substrate control) and transforming X values (test compound concentrations) using: X=log(X), IC50 values were determined, using the GraphPad Prism 6.0 [log(agonist) vs. normalized response—Variable slope].

[2] = target: T2, DYRK1A (Homo sapiens, UniProt Q13627); assay: DYRK1A in vitro kinase assay (ADP-Glo); format: biochemical; conditions: ATP 70 μM (Km), substrate 3 μM, enzyme 2 nM or 0.7 nM, 30 min, rt
T2 construct: purchased Carna Bioscence (Carna Biosciences) 04-130
Protocol: The compounds of the present invention were tested for their inhibitory activity against DYRK1A and DYRK1B kinases once or several times. When tested more than once, the data are reported herein as average value, wherein the average value, also referred to as the mean value, represents the sum of obtained values divided by the number of times tested.
DYRK-inhibitory activity of the compounds of the present invention was tested using the ADP-Glo™ assay as described in the following paragraphs. The procedure for determining the IC50 values with the ADP-Glo™ assay in in vitro kinase assays consists of two parts:
1. Kinase reaction performed under optimized conditions;
2. Detection of ADP as a product of the reaction using ADP-Glo™ system (Promega).
The tested compounds indicated in Table 5 below were dissolved in DMSO, then transferred to the V-bottom PP plate to perform nine serial dilutions (in order to obtain dose-response curves) in 25% DMSO, as indicated in Table 5 below.
The optimized conditions for performing DYRK1A in vitro kinase assay were as follows:
For compound testing, the following protocol was used: two mixes were prepared on ice, Mix 1 containing substrate, ATP and reaction buffer and Mix 2 containing reaction buffer and the kinase. 15 μL per well of Mix 1 was transferred to wells of a 96-well plate. Next, 2.5 μL of the pre-diluted compound to be tested was added to Mix 1, followed by the addition of 12.5 μL of Mix 2. Total reaction volume was 30 μL per well. The experiment was performed in duplicate for each data point being examined. Dose response curve for the positive control was carried out on each assay plate by adding the reference inhibitory compound staurosporine. For each test, three controls were also included: (i) 30 μL of the reaction mixture containing: reaction buffer, ATP, kinase, DMSO without substrate (quasi-positive control); (ii) 30 μL of the reaction mixture containing reaction buffer, substrate, ATP, DMSO without kinase (background control); (iii) 30 μL of the reaction mixture containing reaction buffer, substrate, kinase, ATP, DMSO (vehicle control). Final concentration of DMSO in the reaction was 2%. To detect the ADP amount produced during the kinase reaction, the commercially available kit ADP-Glo™ Kinase Assay (Promega, cat. No # V9103) was used. The protocol used for the detection was based on the Technical Bulletin of the ADP-Glo™ Kinase Assay (Promega) and was adapted to 96-well plate containing 30 μL reaction mixture as explained below.
30 μL of ADP-Glo™ Reagent was added to each well of a 96 well plate containing 30 μL of reaction mixture to terminate the kinase reaction and deplete the remaining ATP. The plate was incubated for 60 minutes on a shaker at rt. 60 μL of Kinase Detection Solution was then added to each well of 96-well plate containing 60 μL of the solution to convert ADP to ATP and to allow the newly synthesized ATP to be measured using a luciferase/luciferin reaction (ratio of kinase reaction volume to ADP Glo™ Reagent volume to Kinase Detection Solution volume was maintained at 1:1:2). The plate was incubated for 40 minutes on a shaker at rt, protected from light. Luminescence was measured in the plate reader, wherein the luminescent signal is proportional to the ADP concentration produced and thus correlates with kinase activity.
After data normalization to controls (complete reaction mix and no-substrate control) and transforming X values (test compound concentrations) using: X=log(X), IC50 values were determined, using the GraphPad Prism 6.0 [log(agonist) vs. normalized response—Variable slope].

T1 sequence (Q9Y463 whole entry): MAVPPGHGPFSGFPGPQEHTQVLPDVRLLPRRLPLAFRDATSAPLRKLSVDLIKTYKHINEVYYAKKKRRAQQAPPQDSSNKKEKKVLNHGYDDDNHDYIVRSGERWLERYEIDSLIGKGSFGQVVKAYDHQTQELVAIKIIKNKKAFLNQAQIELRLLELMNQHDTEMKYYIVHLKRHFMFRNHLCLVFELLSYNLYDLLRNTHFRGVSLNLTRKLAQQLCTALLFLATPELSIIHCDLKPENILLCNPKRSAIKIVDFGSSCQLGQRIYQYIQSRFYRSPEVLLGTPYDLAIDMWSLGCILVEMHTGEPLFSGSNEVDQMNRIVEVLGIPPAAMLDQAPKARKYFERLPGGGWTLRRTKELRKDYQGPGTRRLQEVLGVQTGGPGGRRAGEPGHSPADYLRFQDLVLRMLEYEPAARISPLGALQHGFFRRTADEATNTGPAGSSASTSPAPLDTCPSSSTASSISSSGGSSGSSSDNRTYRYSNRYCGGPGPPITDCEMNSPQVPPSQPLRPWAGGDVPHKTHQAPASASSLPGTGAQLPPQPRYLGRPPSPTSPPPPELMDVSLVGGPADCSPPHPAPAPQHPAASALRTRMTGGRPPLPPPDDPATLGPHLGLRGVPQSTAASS

IC50 [1] [nM] | IC50 [2] [nM] | SMILES
> 100 | > 100 | C=CCN(C)C(=O)c1cnc2[nH]cc(-c3cc(OC)c4ncccc4c3)c2c1 [Example 26, 3-(8-Methoxyquinolin-6-yl)-N-methyl-N-(prop-2-en-1-yl)-1H-pyrrolo[2,3-b]pyridine-5-carboxamide]
< 10 | < 10 | CNC(=O)c1cnc2[nH]cc(-c3cc(F)c4nccc(CCc5ccccc5)c4c3)c2c1 [Example 40, 3-[8-Fluoro-4-(2-phenylethyl)quinolin-6-yl]-N-methyl-1H-pyrrolo[2,3-b]pyridine-5-carboxamide]
10 to 100 | > 100 | COc1cc(-c2c[nH]c3ncc(C(N)=O)cc23)cc2c(-c3cccnc3)ccnc12 [Example 45, 3-[8-Methoxy-4-(pyridin-3-yl)quinolin-6-yl]-1H-pyrrolo[2,3-b]pyridine-5-carboxamide]
< 10 | < 10 | O=C(NCc1ccccc1)c1cnc2[nH]cc(-c3cc(F)c4ncccc4c3)c2c1 [Example 31, N-Benzyl-3-(8-fluoroquinolin-6-yl)-1H-pyrrolo[2,3-b]pyridine-5-carboxamide]
< 10 | 10 to 100 | CNC(=O)c1cnc2[nH]cc(-c3ccc4ncc(NCC5CCOCC5)c(N5CCOCC5)c4c3)c2c1 [Example 58, N-Methyl-3-[4-(morpholin-4-yl)-3-[(oxan-4-ylmethyl)amino]quinolin-6-yl]-1H-pyrrolo[2,3-b]pyridine-5-carboxamide]
< 10 | < 10 | CNC(=O)c1cnc2[nH]cc(-c3ccc4nccc(Cl)c4c3)c2c1 [Example 24, 3-(4-Chloroquinolin-6-yl)-N-methyl-1H-pyrrolo[2,3-b]pyridine-5-carboxamide]
< 10 | 10 to 100 | O=C(NCc1ccccc1)c1cnc2[nH]cc(-c3cc(F)c4nccc(-c5cccnc5)c4c3)c2c1 [Example 36, N-Benzyl-3-[8-fluoro-4-(pyridin-3-yl)quinolin-6-yl]-1H-pyrrolo[2,3-b]pyridine-5-carboxamide]
< 10 | < 10 | c1cnc2[nH]cc(-c3ccc4ncc(NCc5ccoc5)cc4c3)c2c1 [Example 16, N-(Furan-3-ylmethyl)-6-{1H-pyrrolo[2,3-b]pyridin-3-yl}quinolin-3-amine]

More lines, now with the values behind:

SMILES | IC50 [1] [nM] | IC50 [2] [nM]
CNC(=O)c1cnc2[nH]cc(-c3ccc4ncc(N)c(N5CCC[C@H](N)C5)c4c3)c2c1 [Example 54, 3-{3-Amino-4-[(3S)-3-aminopiperidin-1-yl]quinolin-6-yl}-N-methyl-1H-pyrrolo[2,3-b]pyridine-5-carboxamide hydrochloride] | < 10 | < 10
Fc1cc(-c2c[nH]c3ncc(CNCc4ccccc4)cc23)cc2c(-c3cccnc3)ccnc12 [Example 50, Benzyl({3-[8-fluoro-4-(pyridin-3-yl)quinolin-6-yl]-1H-pyrrolo[2,3-b]pyridin-5-yl}methyl)amine] | < 10 | < 10
FC(F)(F)Oc1cc(-c2c[nH]c3ncccc23)cc2cccnc12 [Example 14, 6-{1H-Pyrrolo[2,3-b]pyridin-3-yl}-8-(trifluoromethoxy)quinoline] | 10 to 100 | > 100
N[C@@H]1CCCN(c2ccnc3c(F)cc(-c4c[nH]c5ncc(C(=O)NCc6cncnc6)cc45)cc23)C1 [Example 49, 3-{4-[(3R)-3-Aminopiperidin-1-yl]-8-fluoroquinolin-6-yl}-N-(pyrimidin-5-ylmethyl)-1H-pyrrolo[2,3-b]pyridine-5-carboxamide hydrochloride] | < 10 | < 10
Nc1cnc2ccc(-c3c[nH]c4ncc(C(=O)NCc5cccnc5)cc34)cc2c1 [Example 61, 3-(3-Aminoquinolin-6-yl)-N-(pyridin-3-ylmethyl)-1H-pyrrolo[2,3-b]pyridine-5-carboxamide] | < 10 | < 10
c1cncc(-c2ccnc3ccc(-c4c[nH]c5ncccc45)cc23)c1 [Example 6, 4-(Pyridin-3-yl)-6-{1H-pyrrolo[2,3-b]pyridin-3-yl}quinoline] | < 10 | < 10
CNC(=O)c1cnc2[nH]cc(-c3cc(F)c4nccc(-c5cnccc5C)c4c3)c2c1 [Example 44, N-Methyl-3-[8-fluoro-4-(4-methylpyridin-3-yl)quinolin-6-yl]-1H-pyrrolo[2,3-b]pyridine-5-carboxamide] | < 10 | < 10
Clc1cc(-c2c[nH]c3ncccc23)cc2cccnc12 [Example 11, 8-Chloro-6-{1H-pyrrolo[2,3-b]pyridin-3-yl}quinoline hydrochloride] | < 10 | < 10
C=CCN(C)C(=O)c1cnc2[nH]cc(-c3cc(F)c4ncccc4c3)c2c1 [Example 27, 3-(8-Fluoroquinolin-6-yl)-N-methyl-N-(prop-2-en-1-yl)-1H-pyrrolo[2,3-b]pyridine-5-carboxamide] | < 10 | < 10
c1ccc(-c2ccnc3ccc(-c4c[nH]c5ncccc45)cc23)cc1 [Example 8, 4-Phenyl-6-{1H-pyrrolo[2,3-b]pyridin-3-yl}quinoline] | < 10 | < 10
CC(=O)Nc1cnc2[nH]cc(-c3cc(F)c4nccc(-c5cccnc5)c4c3)c2c1 [Example 46, N-{3-[8-Fluoro-4-(pyridin-3-yl)quinolin-6-yl]-1H-pyrrolo[2,3-b]pyridin-5-yl}acetamide] | < 10 | < 10
